Test results published in US20130022673A1, “ENHANCEMENT OF MAGNESIUM UPTAKE IN MAMMALS” (priority 2003, published 2013).

Legend:
[1] = oral intake; 'it is believed'; cited from earlier work
[2] = tested on: 'restless legs' and intermittent leg cramps; conditions: Week 3-4; scale 0 to 100
From the text: A person suffered from ‘restless legs’ and intermittent leg cramps during sleep.
Each week the subject was asked to rate the intensity of the problem on a consistent rating scale with ‘0’ indicating no problem and ‘100’ indicating the most severe expression of the condition.

| Compound | fraction of elemental magnesium absorbed for use by the body [1] [%] | Ave. intensity of leg cramp related difficulty [2] |
| --- | --- | --- |
| [O]=[Mg] [magnesium oxide] | 3 to 12 |  |
| choline citrate |  | 83 |
